Common to all, as to test: Kinase selectivity, DiscoverX scanMAX Kinase assay panel (% control)
Type in all cases: binding

Experiment [1] concerns the target T1, kinases of the scanMAX Kinase assay panel (Homo sapiens, UniProt Q15303).
T1 construct: purchased DiscoverX Co. (contract measurement) scanMAX Kinase assay panel
The settings on record: ERBB4; 1 uM. The gist of the method: (§1)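 Each enzyme is treated with drug at 1 uM in DMSO, then signal is scaled between a positive control (0%) and DMSO (100%) to give % control. Kinases with % control under 35% are scored as inhibited.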

Experiment [2] addresses T2, kinases of the scanMAX Kinase assay panel (Homo sapiens, UniProt Q32MK0).
T2 construct: purchased DiscoverX Co. (contract measurement) scanMAX Kinase assay panel
T2 sequence (Q32MK0 1-819): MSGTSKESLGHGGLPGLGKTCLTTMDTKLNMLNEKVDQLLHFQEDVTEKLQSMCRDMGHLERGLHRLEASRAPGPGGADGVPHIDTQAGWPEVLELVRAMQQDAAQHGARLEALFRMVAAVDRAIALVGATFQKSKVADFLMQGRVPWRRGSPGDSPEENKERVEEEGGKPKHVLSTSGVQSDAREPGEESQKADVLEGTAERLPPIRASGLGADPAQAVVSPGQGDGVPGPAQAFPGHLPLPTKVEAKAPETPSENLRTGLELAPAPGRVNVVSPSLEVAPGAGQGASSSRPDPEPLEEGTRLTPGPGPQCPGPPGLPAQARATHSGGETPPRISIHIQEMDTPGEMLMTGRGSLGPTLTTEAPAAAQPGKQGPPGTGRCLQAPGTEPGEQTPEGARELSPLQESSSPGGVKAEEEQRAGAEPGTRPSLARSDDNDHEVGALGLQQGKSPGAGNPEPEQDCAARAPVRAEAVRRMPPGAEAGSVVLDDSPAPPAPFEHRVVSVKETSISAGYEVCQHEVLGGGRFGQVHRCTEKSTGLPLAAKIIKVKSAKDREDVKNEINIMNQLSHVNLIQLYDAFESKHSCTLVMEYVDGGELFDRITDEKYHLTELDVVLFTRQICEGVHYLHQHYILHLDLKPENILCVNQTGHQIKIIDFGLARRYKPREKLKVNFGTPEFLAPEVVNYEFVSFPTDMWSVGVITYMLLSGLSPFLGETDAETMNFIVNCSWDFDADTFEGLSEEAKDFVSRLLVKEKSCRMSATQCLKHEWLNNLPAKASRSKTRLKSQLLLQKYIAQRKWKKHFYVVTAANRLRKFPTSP
The conditions noted are these: MLCK; 1 uM. The gist of the method:
as §1

The target in experiment [3] is T3, kinases of the scanMAX Kinase assay panel (Homo sapiens, UniProt Q13873).
T3 construct: purchased DiscoverX Co. (contract measurement) scanMAX Kinase assay panel
T3 sequence (Q13873 27-1038): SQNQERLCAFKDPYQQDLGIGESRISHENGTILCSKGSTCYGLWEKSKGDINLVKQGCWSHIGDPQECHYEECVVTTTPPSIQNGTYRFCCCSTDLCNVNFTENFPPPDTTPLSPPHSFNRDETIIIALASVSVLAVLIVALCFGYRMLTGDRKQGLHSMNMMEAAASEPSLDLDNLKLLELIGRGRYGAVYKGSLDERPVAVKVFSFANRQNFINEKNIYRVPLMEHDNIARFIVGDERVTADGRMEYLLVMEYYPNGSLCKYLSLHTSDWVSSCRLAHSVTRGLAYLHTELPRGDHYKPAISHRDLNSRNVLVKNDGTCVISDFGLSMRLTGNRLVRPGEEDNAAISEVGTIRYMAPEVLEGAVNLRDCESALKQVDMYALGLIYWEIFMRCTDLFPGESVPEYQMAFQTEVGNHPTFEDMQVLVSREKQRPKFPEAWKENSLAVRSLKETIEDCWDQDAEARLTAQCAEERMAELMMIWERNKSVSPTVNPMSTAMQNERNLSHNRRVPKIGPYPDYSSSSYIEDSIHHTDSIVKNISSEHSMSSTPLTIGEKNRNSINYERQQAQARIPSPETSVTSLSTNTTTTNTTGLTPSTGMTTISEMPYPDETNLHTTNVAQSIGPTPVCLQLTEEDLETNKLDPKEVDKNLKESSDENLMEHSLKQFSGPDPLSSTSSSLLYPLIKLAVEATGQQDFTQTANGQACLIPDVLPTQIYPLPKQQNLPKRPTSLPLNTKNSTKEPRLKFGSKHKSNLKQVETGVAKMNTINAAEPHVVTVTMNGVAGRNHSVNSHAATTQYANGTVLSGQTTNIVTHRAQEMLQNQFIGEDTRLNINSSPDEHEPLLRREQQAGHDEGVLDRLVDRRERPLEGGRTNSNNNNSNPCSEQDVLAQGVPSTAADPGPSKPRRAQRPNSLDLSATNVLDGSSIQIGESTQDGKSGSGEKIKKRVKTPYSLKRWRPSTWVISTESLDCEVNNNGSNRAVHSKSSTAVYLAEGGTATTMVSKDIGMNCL
The settings on record: BMPR2; 1 uM. Put shortly:
as §1

Experiment [4] concerns the target T4, kinases of the scanMAX Kinase assay panel (Homo sapiens, UniProt P42336, E545K).
T4 construct: purchased DiscoverX Co. (contract measurement) scanMAX Kinase assay panel
The conditions noted are these: PIK3CA(E545K); 1 uM. The gist of the method:
as §1

For experiment [5], the target named is T5, kinases of the scanMAX Kinase assay panel (Homo sapiens, UniProt P00519, H396P).
T5 construct: purchased DiscoverX Co. (contract measurement) scanMAX Kinase assay panel
The settings on record: 1 uM. The gist of the method: as §1

The target of experiment [6] is T6, kinases of the scanMAX Kinase assay panel (Homo sapiens, UniProt Q13705).
T6 construct: purchased DiscoverX Co. (contract measurement) scanMAX Kinase assay panel
The conditions noted are these: ACVR2B; 1 uM. Put shortly:
as §1

The target in experiment [7] is T7, kinases of the scanMAX Kinase assay panel (Homo sapiens, UniProt P42336).
T7 construct: purchased DiscoverX Co. (contract measurement) scanMAX Kinase assay panel
The conditions noted are these: PIK3CA; 1 uM. The gist of the method:
as §1

The target of experiment [8] is T8, kinases of the scanMAX Kinase assay panel (Homo sapiens, UniProt Q8N5S9).
T8 construct: purchased DiscoverX Co. (contract measurement) scanMAX Kinase assay panel
The conditions noted are these: CAMKK1; 1 uM. The gist of the method: as §1

T6 sequence (Q13705 19-512): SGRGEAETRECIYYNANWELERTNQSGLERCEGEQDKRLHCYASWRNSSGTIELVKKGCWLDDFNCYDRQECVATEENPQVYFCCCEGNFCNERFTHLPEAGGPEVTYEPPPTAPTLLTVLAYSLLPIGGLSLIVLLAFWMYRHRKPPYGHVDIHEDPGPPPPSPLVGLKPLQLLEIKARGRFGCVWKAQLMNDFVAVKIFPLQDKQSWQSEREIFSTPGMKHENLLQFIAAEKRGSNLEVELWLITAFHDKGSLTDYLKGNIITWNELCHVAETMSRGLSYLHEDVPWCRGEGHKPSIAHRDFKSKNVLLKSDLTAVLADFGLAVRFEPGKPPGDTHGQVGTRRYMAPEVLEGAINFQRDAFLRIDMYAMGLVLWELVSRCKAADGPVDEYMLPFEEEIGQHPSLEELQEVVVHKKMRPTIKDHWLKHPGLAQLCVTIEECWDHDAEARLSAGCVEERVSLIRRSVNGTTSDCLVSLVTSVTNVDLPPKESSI
T4 sequence (P42336 whole entry E545K): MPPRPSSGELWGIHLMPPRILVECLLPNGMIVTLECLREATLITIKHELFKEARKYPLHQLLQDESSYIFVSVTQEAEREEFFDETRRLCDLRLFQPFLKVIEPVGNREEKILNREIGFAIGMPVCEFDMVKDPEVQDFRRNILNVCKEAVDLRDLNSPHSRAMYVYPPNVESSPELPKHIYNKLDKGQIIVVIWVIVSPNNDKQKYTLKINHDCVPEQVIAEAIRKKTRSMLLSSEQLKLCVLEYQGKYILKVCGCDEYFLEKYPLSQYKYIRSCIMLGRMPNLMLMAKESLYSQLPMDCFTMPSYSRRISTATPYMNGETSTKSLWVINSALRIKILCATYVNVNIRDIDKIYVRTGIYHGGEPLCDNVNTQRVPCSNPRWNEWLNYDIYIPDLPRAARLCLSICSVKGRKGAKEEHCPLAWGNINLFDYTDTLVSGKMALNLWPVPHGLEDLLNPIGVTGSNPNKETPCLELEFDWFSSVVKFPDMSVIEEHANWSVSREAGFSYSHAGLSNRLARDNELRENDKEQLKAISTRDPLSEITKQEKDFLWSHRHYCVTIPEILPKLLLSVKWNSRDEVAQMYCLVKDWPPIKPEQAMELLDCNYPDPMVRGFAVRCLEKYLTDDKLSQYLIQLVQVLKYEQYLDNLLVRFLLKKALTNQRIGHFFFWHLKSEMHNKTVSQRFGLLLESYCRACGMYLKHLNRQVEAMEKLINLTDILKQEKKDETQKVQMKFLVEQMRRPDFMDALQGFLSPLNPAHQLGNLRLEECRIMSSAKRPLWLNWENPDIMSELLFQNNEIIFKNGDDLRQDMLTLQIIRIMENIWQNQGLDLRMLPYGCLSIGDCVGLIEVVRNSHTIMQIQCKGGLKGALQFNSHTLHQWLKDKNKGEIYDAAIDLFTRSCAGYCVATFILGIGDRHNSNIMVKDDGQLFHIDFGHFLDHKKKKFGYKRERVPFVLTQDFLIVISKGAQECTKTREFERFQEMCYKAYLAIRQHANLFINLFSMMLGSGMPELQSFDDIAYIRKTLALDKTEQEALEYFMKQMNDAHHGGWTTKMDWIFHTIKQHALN
T8 sequence (Q8N5S9 whole entry): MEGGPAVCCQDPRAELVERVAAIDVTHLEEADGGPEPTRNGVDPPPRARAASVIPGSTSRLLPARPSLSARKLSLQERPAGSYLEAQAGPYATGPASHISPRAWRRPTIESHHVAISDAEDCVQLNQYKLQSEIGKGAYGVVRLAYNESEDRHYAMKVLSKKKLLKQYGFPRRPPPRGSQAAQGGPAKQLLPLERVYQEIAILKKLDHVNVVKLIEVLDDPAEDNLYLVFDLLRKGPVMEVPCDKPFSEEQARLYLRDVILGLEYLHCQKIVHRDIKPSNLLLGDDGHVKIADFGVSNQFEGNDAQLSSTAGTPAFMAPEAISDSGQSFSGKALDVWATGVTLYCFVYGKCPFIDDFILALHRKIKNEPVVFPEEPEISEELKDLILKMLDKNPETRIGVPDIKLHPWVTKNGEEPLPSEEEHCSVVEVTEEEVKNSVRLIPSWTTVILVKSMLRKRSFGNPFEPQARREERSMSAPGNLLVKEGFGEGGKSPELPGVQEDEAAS
T1 sequence (Q15303 26-1308): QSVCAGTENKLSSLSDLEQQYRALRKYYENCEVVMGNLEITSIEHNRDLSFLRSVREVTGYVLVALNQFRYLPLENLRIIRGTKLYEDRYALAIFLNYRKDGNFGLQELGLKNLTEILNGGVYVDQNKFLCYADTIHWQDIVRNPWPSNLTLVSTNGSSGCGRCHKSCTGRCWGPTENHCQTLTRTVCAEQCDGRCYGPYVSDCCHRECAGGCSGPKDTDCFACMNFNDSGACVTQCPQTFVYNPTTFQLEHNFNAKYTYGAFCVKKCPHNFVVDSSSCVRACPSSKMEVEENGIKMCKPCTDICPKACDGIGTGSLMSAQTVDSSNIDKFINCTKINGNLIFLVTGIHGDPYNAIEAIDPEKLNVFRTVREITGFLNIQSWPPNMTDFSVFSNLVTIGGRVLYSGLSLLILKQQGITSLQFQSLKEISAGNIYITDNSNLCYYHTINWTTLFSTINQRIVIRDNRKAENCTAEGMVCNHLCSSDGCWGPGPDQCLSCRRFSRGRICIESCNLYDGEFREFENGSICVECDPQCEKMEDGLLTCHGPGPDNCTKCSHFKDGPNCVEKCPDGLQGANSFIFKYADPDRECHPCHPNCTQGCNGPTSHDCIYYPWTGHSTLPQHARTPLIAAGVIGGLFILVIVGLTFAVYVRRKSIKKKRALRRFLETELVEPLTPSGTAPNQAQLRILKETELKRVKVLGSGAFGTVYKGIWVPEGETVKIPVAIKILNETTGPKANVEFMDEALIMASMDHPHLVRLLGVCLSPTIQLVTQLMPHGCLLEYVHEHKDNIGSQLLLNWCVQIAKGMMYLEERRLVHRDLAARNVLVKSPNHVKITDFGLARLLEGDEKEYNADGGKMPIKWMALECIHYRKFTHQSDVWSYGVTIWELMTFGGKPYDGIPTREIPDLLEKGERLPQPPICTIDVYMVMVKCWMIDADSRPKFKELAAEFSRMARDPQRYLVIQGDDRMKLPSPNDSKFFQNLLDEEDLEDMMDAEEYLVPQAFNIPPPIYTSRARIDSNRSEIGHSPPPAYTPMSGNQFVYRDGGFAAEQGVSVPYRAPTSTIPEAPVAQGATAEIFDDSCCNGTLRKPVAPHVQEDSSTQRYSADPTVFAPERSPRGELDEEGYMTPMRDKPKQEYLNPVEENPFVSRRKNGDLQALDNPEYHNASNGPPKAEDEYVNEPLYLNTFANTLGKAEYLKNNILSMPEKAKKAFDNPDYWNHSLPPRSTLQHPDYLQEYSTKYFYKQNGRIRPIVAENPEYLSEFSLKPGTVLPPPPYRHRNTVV
T7 sequence (P42336 whole entry): as the sequence (P42336 whole entry E545K) above, with K545E counted along it

As to `CNc1nc(Nc2ccc(C(=O)N3CCOCC3)cc2OC)nc2[nH]cc(C#N)c12` [Example 1, 2-((2-methoxy-4-(morpholine-4-carbonyl)phenyl)amino)-4-(methylamino)-7H-pyrrolo[2,3-d]pyrimidine-5-carbonitrile], the remaining binding at 1 µM in experiment [1] was 99%; in experiment [2], 96%; in experiment [3], 79%; in experiment [4] it was 80%; in experiment [5] (ABL1(H396P)-nonphosphorylated), 81%; in experiment [5] (ABL1(H396P)-phosphorylated), 94%. Also, the remaining binding at 1 µM turned out to be 100% in experiment [6], 87% in experiment [7] and 81% in experiment [8].

As to `CC1(Nc2nc(Nc3cnn([C@H]4CCN(C5COC5)C[C@@H]4F)c3Cl)nc3[nH]cc(C#N)c23)CC1` [Example 52, 2-((5-chloro-1-((3S,4S)-3-fluoro-1-(oxetane-3-yl)piperidine-4-yl)-1H-pyrazole-4-yl)amino)((1-methylcyclopropyl)amino)-7H-pyrrolo[2,3-d]pyrimidine-5-carbonitrile], the remaining binding at 1 µM is 45% in experiment [1]; 9% in experiment [2]; 0.65% in experiment [3]; 68% in experiment [4]; 0.55% in experiment [5] (ABL1(H396P)-nonphosphorylated); 0.9% in experiment [5] (ABL1(H396P)-phosphorylated). Also, the values for the remaining binding at 1 µM in experiment [6], in experiment [7] and in experiment [8] were 85%, 60% and 21%, respectively.

For the compound `CCNc1nc(Nc2ccc(C(=O)N3CCC(N4CCOCC4)CC3)cc2OC)nc2[nH]cc(C(F)(F)F)c12` [Example 104, (4-((4-(ethylamino)-5-(trifluoromethyl)-7H-pyrrolo[2,3-d]pyrimidine-2-yl)amino)-3-methoxyphenyl)(4-morpholinopiperidine-1-yl)methanone], the remaining binding at 1 µM in experiment [1] is 100%; in experiment [2], 92%; in experiment [3] it was 100%; in experiment [4], 90%; in experiment [5] (ABL1(H396P)-nonphosphorylated), 96%; in experiment [5] (ABL1(H396P)-phosphorylated), 74%. Further, the values for the remaining binding at 1 µM in experiment [6], in experiment [7] and in experiment [8] were 100%, 99% and 14%, respectively.

Values taken from US11208412B2 (DAEGU-GYEONGBUK MEDICAL INNOVATION FOUNDATION, priority 2017, dated 2021).
